# In ChEMBL document CHEMBL4725321, “Study on antitumor activities of the chrysin-chromene-spirooxindole on Lewis lung carcinoma C57BL/6 mice in vivo” (Bioorg Med Chem Lett, 2020):
# The source made the active and inactive calls. The calls are words filed in the database; no cut-off is given here.
# Assays:
# Lewis lung carcinoma [1] = assay: Antitumor activity against mouse LLC allografted in ip dosed C57BL/6 mouse assessed as reduction in tumor volume measured after 7 days; type: functional, organism-based; details: dose mg/kg 100-400, time 7.0 day
# [2] = Toxicity in C57BL/6 mouse assessed as effect on body weight at 100 to 400 mg/kg, ip measured on day 3; type: organism-based; details: in vivo, 72 h, dose 100-400 mg/kg, time 3 day
# [3] = Toxicity in C57BL/6 mouse assessed as increase in body weight at 100 to 200 mg/kg, ip measured up to 15 days; type: organism-based; details: in vivo, 360 h, dose 100-200 mg/kg, time <=15 day
# [4] = Toxicity in C57BL/6 mouse assessed as increase in body weight at 400 mg/kg, ip measured up to 15 days; type: organism-based; details: in vivo, 360 h, time <=15 day
# Lewis lung carcinoma [5] = assay: Antitumor activity against mouse LLC allografted in C57BL/6 mouse assessed as inhibition of tumor growth at 400 mg/kg, ip measured after 7 days; type: functional, organism-based; details: time 7.0 day
# Lewis lung carcinoma [6] = assay: Antitumor activity against mouse LLC allografted in ip dosed C57BL/6 mouse assessed as reduction in tumor growth administered once every other day; type: functional, organism-based; details: dose mg/kg 100-400
# Lewis lung carcinoma [7] = assay: Antitumor activity against mouse LLC allografted in C57BL/6 mouse assessed as reduction in tumor weight at 400 mg/kg, ip administered once every other day; type: functional, organism-based
# [8] = Antitumor activity against mouse LLC allografted in C57BL/6 mouse assessed as tumor weight at 100 mg/kg, ip administered once every other day (reference value: 2.74 +/- 0.29 g); type: functional, Lewis lung carcinoma
# [9] = Antitumor activity against mouse LLC allografted in C57BL/6 mouse assessed as tumor weight at 200 mg/kg, ip administered once every other day (reference value: 2.74 +/- 0.29 g); type: functional, Lewis lung carcinoma
# [10] = Antitumor activity against mouse LLC allografted in C57BL/6 mouse assessed as tumor weight at 400 mg/kg, ip administered once every other day (reference value: 2.74 +/- 0.29 g); type: functional, Lewis lung carcinoma
# [11] = Antitumor activity against mouse LLC allografted in C57BL/6 mouse assessed as tumor growth inhibition at 100 mg/kg, ip administered once every other day relative to control; type: functional; details: Lewis lung carcinoma, read-out: TGI
# [12] = Antitumor activity against mouse LLC allografted in C57BL/6 mouse assessed as tumor growth inhibition at 200 mg/kg, ip administered once every other day relative to control; type: functional; details: Lewis lung carcinoma, read-out: TGI
# [13] = Antitumor activity against mouse LLC allografted in C57BL/6 mouse assessed as tumor growth inhibition at 400 mg/kg, ip administered once every other day relative to control; type: functional; details: Lewis lung carcinoma, read-out: TGI
# Lewis lung carcinoma [14] = assay: Antitumor activity against mouse LLC allografted in ip dosed C57BL/6 mouse assessed as induction of apoptosis by measuring reduction in number of tumor cells administered every other day by H and E staining based analysis; type: functional, organism-based; details: dose mg/kg 100-400
# Lewis lung carcinoma [15] = assay: Antitumor activity against mouse LLC allografted in ip dosed C57BL/6 mouse assessed as induction of apoptosis by measuring nuclear contraction administered every other day by H and E staining based analysis; type: functional, organism-based; details: dose mg/kg 100-400
# Lewis lung carcinoma [16] = assay: Antitumor activity against mouse LLC allografted in ip dosed C57BL/6 mouse assessed as induction of apoptosis by measuring increase in cell debris content in tumor administered every other day by H and E staining based analysis; type: functional, organism-based; details: dose mg/kg 100-400
# Lewis lung carcinoma [17] = assay: Antitumor activity against mouse LLC allografted in ip dosed C57BL/6 mouse assessed as induction of apoptosis by measuring increase in apoptotic bodies in tumor administered every other day by H and E staining based analysis; type: functional, organism-based; details: dose mg/kg 100-400
# Lewis lung carcinoma [18] = assay: Antitumor activity against mouse LLC allografted in ip dosed C57BL/6 mouse assessed as increase in bax expression administered once every other day by Western blot analysis; type: functional, organism-based; details: dose mg/kg 100-400
# Lewis lung carcinoma [19] = assay: Antitumor activity against mouse LLC allografted in ip dosed C57BL/6 mouse assessed as reduction in bcl2 expression administered once every other day by Western blot analysis; type: functional, organism-based; details: dose mg/kg 100-400
# [20] = Antitumor activity against mouse LLC allografted in C57BL/6 mouse assessed as bax/bcl2 ratio at 100 mg/kg, ip administered once every other day by Western blot analysis; type: functional, Lewis lung carcinoma
# [21] = Antitumor activity against mouse LLC allografted in C57BL/6 mouse assessed as bax/bcl2 ratio at 200 mg/kg, ip administered once every other day by Western blot analysis; type: functional, Lewis lung carcinoma
# [22] = Antitumor activity against mouse LLC allografted in C57BL/6 mouse assessed as bax/bcl2 ratio at 400 mg/kg, ip administered once every other day by Western blot analysis; type: functional, Lewis lung carcinoma
# Lewis lung carcinoma [23] = assay: Antitumor activity against mouse LLC allografted in C57BL/6 mouse assessed as effect on Cyt C protein expression in tumor at 100 to 200 mg/kg, ip administered once every other day by Western blot analysis; type: functional, organism-based; details: dose mg/kg 100-200
# Lewis lung carcinoma [24] = assay: Antitumor activity against mouse LLC allografted in C57BL/6 mouse assessed as Cyt C protein expression level in tumor at 400 mg/kg, ip administered once every other day by Western blot analysis relative to control; type: functional, organism-based
# [25] = Upregulation of p53 protein expression in […] LLC allografted C57BL/6 mouse at 400 mg/kg, ip administered once every other day by Western blot analysis relative to control; type: functional
# [26] = In vivo activation of p53 in mouse LLC allografted C57BL/6 mouse assessed as reduction in Akt protein expression in tumor at 200 mg/kg, ip administered once every other day by Western blot analysis relative to control; type: functional
# [27] = In vivo activation of p53 in mouse LLC allografted C57BL/6 mouse assessed as reduction in 5-lox protein expression in tumor at 400 mg/kg, ip administered once every other day by Western blot analysis relative to control; type: functional
# [28] = molecular target: E3 ubiquitin-protein ligase Mdm2 (Mus musculus) (UniProt P23804); assay: In vivo activation of p53 in mouse LLC allografted C57BL/6 mouse assessed as reduction in MDM2 protein expression in tumor at 100 to 400 mg/kg, ip administered once every other day by Western blot analysis; type: functional, organism-based; details: dose mg/kg 100-400
# Mus musculus [29] = assay: Down regulation of VEGF protein expression in mouse LLC allografted C57BL/6 mouse at 100 mg/kg, ip by Western blot analysis; type: functional, organism-based
# Mus musculus [30] = assay: Down regulation of VEGF protein expression in mouse LLC allografted C57BL/6 mouse at 200 to 400 mg/kg, ip by Western blot analysis; type: functional, organism-based; details: dose mg/kg 200-400
# Mus musculus [31] = assay: Down regulation of ICAM1 protein expression in mouse LLC allografted C57BL/6 mouse at 100 mg/kg, ip by Western blot analysis; type: functional, organism-based
# Mus musculus [32] = assay: Down regulation of MMP2 protein expression in mouse LLC allografted C57BL/6 mouse at 200 mg/kg, ip by Western blot analysis; type: functional, organism-based
# E3 ubiquitin-protein ligase Mdm2 (Mus musculus), sequence (P23804 whole entry): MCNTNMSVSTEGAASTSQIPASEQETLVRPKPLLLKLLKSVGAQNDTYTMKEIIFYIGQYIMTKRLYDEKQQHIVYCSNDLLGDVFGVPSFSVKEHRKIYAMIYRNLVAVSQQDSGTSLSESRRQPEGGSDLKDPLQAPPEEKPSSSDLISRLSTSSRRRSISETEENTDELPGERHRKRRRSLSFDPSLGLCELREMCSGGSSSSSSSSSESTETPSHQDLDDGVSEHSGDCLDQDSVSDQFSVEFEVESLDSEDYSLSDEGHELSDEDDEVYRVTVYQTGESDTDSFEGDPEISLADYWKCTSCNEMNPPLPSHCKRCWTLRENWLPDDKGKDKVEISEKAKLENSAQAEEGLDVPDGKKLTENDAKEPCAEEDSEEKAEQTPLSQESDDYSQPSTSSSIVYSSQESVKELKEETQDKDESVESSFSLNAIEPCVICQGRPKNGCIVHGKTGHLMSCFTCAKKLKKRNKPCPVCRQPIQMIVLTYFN
smiles,measurement,setting,value
CN1C(=O)C2(C(C#N)=C(N)Oc3cc4oc(-c5ccccc5)cc(=O)c4c(O)c32)c2cc(Br)ccc21 (configuration not stated),Activity,Lewis lung carcinoma [1],Dose-dependent effect
same,Activity,[2],Non-Toxic
same,Activity,[3],Toxic
same,Activity,[4],Non-Toxic
same,TGI,Lewis lung carcinoma [5],Active
same,Activity,Lewis lung carcinoma [6],Dose-dependent effect
same,Activity,Lewis lung carcinoma [7],Active
same,Activity,[8],2.51 g
same,Activity,[9],2.15 g
same,Activity,[10],1.18 g
same,inhibition in vivo at 100 mg/kg,[11],7.45%
same,inhibition in vivo at 200 mg/kg,[12],20%
same,inhibition in vivo at 400 mg/kg,[13],56.9%
same,Activity,Lewis lung carcinoma [14],Dose-dependent effect
same,Activity,Lewis lung carcinoma [15],Dose-dependent effect
same,Activity,Lewis lung carcinoma [16],Dose-dependent effect
same,Activity,Lewis lung carcinoma [17],Dose-dependent effect
same,Activity,Lewis lung carcinoma [18],Dose-dependent effect
same,Activity,Lewis lung carcinoma [19],Dose-dependent effect
same,Ratio,[20],1.29
same,Ratio,[21],2.23
same,Ratio,[22],4.13
same,Activity,Lewis lung carcinoma [23],inactive
same,Activity,Lewis lung carcinoma [24],Active
same,fold change (FC),[25],2.86
same,fold change (FC),[26],0.59
same,fold change (FC),[27],0.4
same,Activity,[28],Active
same,Activity,Mus musculus [29],inactive
same,Activity,Mus musculus [30],Active
same,Activity,Mus musculus [31],Active
same,Activity,Mus musculus [32],Active
